These results are taken from patent US4607114A, “Novel platinum complexes” (Nippon Kayaku Kabushiki Kaisha, priority 1983, dated 1986).

Like-named read-outs stand apart in the source and are kept apart here.

The conditions of data set [1]: background statement; cited from earlier work.
Another data set relates to mouse leukemia L-1210. The data set can be described thus: Antitumor activity on mouse leukemia L-1210 (T/C percentage of survival). In kind it is in vivo. The note with it: i.p. once a day for 5 days, female CDF1 mouse. How it is done: (2) Test for antitumor activity on mouse leukemia L-1210.
Into 6-weeks-old female CDF1 mouse were inoculated 1×10^5 L-1210 cells, and each drug was administered intraperitoneally once a day for 5 consecutive days, starting 24 hours after the inoculation. Physiological saline was administered to a control group. From the average survival periods of the drug-treated group and the control group (abbreviated as T and C, respectively), T/C percentage (T/C×100) was determined.

Data set [2] relates to mouse leukemia L-1210 cells. The data set can be described thus: Inhibitory activity on multiplication of mouse leukemia L-1210 initially cultured cells. In kind it is cell-based. The settings on record: 48 hours, 37° C., RPMI 1640 with 10% bovine fetal serum. How it is done:
(1) Test for inhibitory activity on multiplication of mouse leukemia L-1210 initially cultured cells.
Mouse leukemia L-1210 cells collected from the abdominal cavities of DBA/2 mouse were incubated in a 5% CO2 incubator at 37° C. for 48 hours by using a RPMI 1640 medium containing 10% of bovine fetal serum and 5 μM of 2-mercaptoethanol.

Turning to `N.N.[Cl][Pt][Cl]` [cis-Platin, cis-dichlorodiammineplatinum], the carcinostatic effect result in data set [1] is “very excellent”.

Compound `CC1(C)C[NH][Pt]([Cl])([Cl])[NH]1` [compound 1, cis-Dichloro-1,2-diamino-2-methylpropane platinum] showed a Solubility in water of 5000 µg/mL. Further, the “Antitumor effect shown by T/C percentage” value in the data set with mouse leukemia L-1210 (1 mg/kg) is 133%. Further, the “Antitumor effect shown by T/C percentage” value in the data set with mouse leukemia L-1210 (2 mg/kg) came to 171%. The “Antitumor effect shown by T/C percentage” value with mouse leukemia L-1210 (4 mg/kg) worked out at 206%. Moreover, the “Antitumor effect shown by T/C percentage” value with mouse leukemia L-1210 (8 mg/kg) stood at 124%. The “Antitumor effect shown by T/C percentage” value with mouse leukemia L-1210 (16 mg/kg) was determined as 51%.

The compound `CC(C)(N)CN.[Cl][Pt]([Cl])([Cl])[Cl]` [compound 3, cis-Tetrachloro-1,2-diamino-2-methylpropane platinum] yielded a Solubility in water greater than 12000 µg/mL. Further, the “Antitumor effect shown by T/C percentage” value with mouse leukemia L-1210 (1 mg/kg) was 127%. In addition, in the data set on mouse leukemia L-1210 (2 mg/kg), the “Antitumor effect shown by T/C percentage” value is 139%. For the same compound, the “Antitumor effect shown by T/C percentage” value with mouse leukemia L-1210 (4 mg/kg) stood at 162%. Besides, the “Antitumor effect shown by T/C percentage” value in the data set with mouse leukemia L-1210 (8 mg/kg) is reported as 154%. In addition, the “Antitumor effect shown by T/C percentage” value in the data set with mouse leukemia L-1210 (16 mg/kg) turned out to be 60%.

The compound `CCC(C)(N)CN.[Cl][Pt][Cl]` (stereo not drawn) [compound 4, cis-Dichloro-1,2-diamino-2-methylbutane platinum] displayed a Solubility in water of 3500 µg/mL.

Regarding `CCC(N)(CC)CN.O=C([O-])C(=O)[O-].[Pt+2]` [compound 6, cis-Oxalato-1,2-diamino-2-ethylbutane platinum], the “Antitumor effect shown by T/C percentage” value in the data set on mouse leukemia L-1210 (1 mg/kg) was 130%; in the data set on mouse leukemia L-1210 (2 mg/kg) it was 152%; in the data set with mouse leukemia L-1210 (4 mg/kg) it was 226%; in the data set with mouse leukemia L-1210 (8 mg/kg) it was 206%; with mouse leukemia L-1210 (16 mg/kg), 211%.

Compound `CCC(N)(CC)CN.[OH][Pt]([OH])([Cl])[Cl]` [compound 7, cis-Dichloro-trans-dihydroxy-1,2-diamino-2-ethylbutane platinum] gave a Solubility in water of 13000 µg/mL.

For the compound `CCC(N)(CC)CN.[Cl][Pt]([Cl])([Cl])[Cl]` [compound 8, cis-Tetrachloro-1,2-diamino-2-ethylbutane platinum], the Solubility in water is 5000 µg/mL.

`CCC1C(=O)[O][Pt]2([NH]CC(CC)(CC)[NH]2)[O]C1=O` (stereo not drawn) [compound 9, cis-2-Ethylmalonato-1,2-diamino-2-ethylbutane platinum] gave a Solubility in water of 25000 µg/mL.

Compound `CCC(N)(CC)CN.O=C([O-])C(O)C(=O)[O-].[Pt+2]` [compound 10, cis-2-Hydroxymalonato-1,2-diamino-2-ethylbutane platinum] registered a Solubility in water of 16000 µg/mL.

`NCC1(N)CCCCC1.[OH][Pt]([OH])([Cl])[Cl]` [compound 11, cis-Dichloro-trans-dihydroxy-1-amino-1-aminomethylcyclohexane platinum]: the Solubility in water was greater than 2000 µg/mL. In addition, the “Antitumor effect shown by T/C percentage” value in the data set with mouse leukemia L-1210 (4 mg/kg) amounted to 162%. The “Antitumor effect shown by T/C percentage” value with mouse leukemia L-1210 (8 mg/kg) was determined as 237%. Moreover, in the data set on mouse leukemia L-1210 (16 mg/kg), the “Antitumor effect shown by T/C percentage” value came out at 275%. In addition, the “Antitumor effect shown by T/C percentage” value in the data set on mouse leukemia L-1210 (32 mg/kg) is 108%. In the data set on mouse leukemia L-1210 (64 mg/kg), the “Antitumor effect shown by T/C percentage” value stood at 67%.

Take `NCC1(N)CCCCC1.[Cl][Pt]([Cl])([Cl])[Cl]` [compound 12, cis-Tetrachloro-1-amino-1-aminomethylcyclohexane platinum]: the Solubility in water is greater than 15000 µg/mL. Besides, in the data set with mouse leukemia L-1210 (0.5 mg/kg), the “Antitumor effect shown by T/C percentage” value stood at 137%. The “Antitumor effect shown by T/C percentage” value in the data set on mouse leukemia L-1210 (1 mg/kg) turned out to be 200%. Further, in the data set on mouse leukemia L-1210 (2 mg/kg), the “Antitumor effect shown by T/C percentage” value was 259%. Besides, the “Antitumor effect shown by T/C percentage” value in the data set on mouse leukemia L-1210 (4 mg/kg) turned out to be 224%. For the same compound, the “Antitumor effect shown by T/C percentage” value in the data set with mouse leukemia L-1210 (8 mg/kg) is reported as 95%.

`O=C(CCl)[O][Pt]1([O]C(=O)CCl)[NH]CC2(CCCCC2)[NH]1` [compound 15, cis-bis(Chloroacetato)-1-amino-1-aminomethylcyclohexane platinum]: the Solubility in water is greater than 1500 µg/mL. Moreover, in the data set with mouse leukemia L-1210 (0.5 mg/kg), the “Antitumor effect shown by T/C percentage” value is reported as 135%. Besides, the “Antitumor effect shown by T/C percentage” value in the data set on mouse leukemia L-1210 (1 mg/kg) is 175%. Besides, the “Antitumor effect shown by T/C percentage” value in the data set with mouse leukemia L-1210 (2 mg/kg) is listed as 200%. Besides, in the data set on mouse leukemia L-1210 (4 mg/kg), the “Antitumor effect shown by T/C percentage” value stood at 299%. The “Antitumor effect shown by T/C percentage” value in the data set on mouse leukemia L-1210 (8 mg/kg) is on record as 130%.

Regarding `CCC(C(=O)[O-])C(=O)[O-].NCC1(N)CCCCC1.[Pt+2]` [compound 17, cis-2-Ethylmalonato-1-amino-1-aminomethyl cyclohexane platinum], in the data set “Solubility in water”, the Solubility in water amounted to 8000 µg/mL.

For `NCC1(N)CCCC1.[Cl][Pt][Cl]` [compound 18, cis-Dichloro-1-amino-1-aminomethylcyclopentane platinum], the IC50 in data set [2] is 0.02 µg/mL. Besides, the “Antitumor effect shown by T/C percentage” value in the data set on mouse leukemia L-1210 (0.5 mg/kg) was 179%; with mouse leukemia L-1210 (1 mg/kg), 226%; in the data set on mouse leukemia L-1210 (2 mg/kg), 344%; in the data set with mouse leukemia L-1210 (4 mg/kg), 141%; in the data set with mouse leukemia L-1210 (8 mg/kg), 92%.

`NCC1(N)CCCC1.[OH][Pt]([OH])([Cl])[Cl]` [compound 19, cis-Dichloro-trans-dihydroxy-1-amino-1-aminomethylcyclopentane platinum] gave an IC50 in data set [2] of 0.60 µg/mL. Moreover, the “Antitumor effect shown by T/C percentage” value with mouse leukemia L-1210 (4 mg/kg) is given as 138%; in the data set on mouse leukemia L-1210 (8 mg/kg), 174%; in the data set with mouse leukemia L-1210 (16 mg/kg), 323%; in the data set with mouse leukemia L-1210 (32 mg/kg), 113%; with mouse leukemia L-1210 (64 mg/kg), 80%.

`[Cl][Pt]1([Cl])([Cl])([Cl])[NH]CC2(CCCC2)[NH]1` [compound 20, cis-Tetrachloro-1-amino-1-aminomethyl cyclopentane platinum] gave a Solubility in water of 18000 µg/mL.

Regarding `NCC1(N)CCCC1.O=C([O-])C(=O)[O-].[Pt+2]` [compound 21, cis-Oxalato-1-amino-1-aminomethylcyclopentane platinum], the “Antitumor effect shown by T/C percentage” value with mouse leukemia L-1210 (0.5 mg/kg) worked out at 124%; with mouse leukemia L-1210 (1 mg/kg), 141%; in the data set with mouse leukemia L-1210 (2 mg/kg), 161%; in the data set with mouse leukemia L-1210 (4 mg/kg) it was 189%; in the data set with mouse leukemia L-1210 (8 mg/kg), 166%.

`NCC1(N)CCCC1.O=C([O-])C(O)C(=O)[O-].[Pt+2]` [compound 23, cis-2-Hydroxymalonato-1-amino-1-aminomethylcyclopentane platinum] returned a Solubility in water of 5000 µg/mL.

As for “cis-Dichloro-1,2-diamino-2-ethylbutane platinum [compound 5]”, the Solubility in water is greater than 2500 µg/mL. In addition, the “Antitumor effect shown by T/C percentage” value in the data set with mouse leukemia L-1210 (0.5 mg/kg) is on record as 135%. The “Antitumor effect shown by T/C percentage” value in the data set with mouse leukemia L-1210 (1 mg/kg) amounted to 181%. In the data set on mouse leukemia L-1210 (2 mg/kg), the “Antitumor effect shown by T/C percentage” value was determined as 291%. Further, the “Antitumor effect shown by T/C percentage” value in the data set on mouse leukemia L-1210 (4 mg/kg) is 199%. Also, in the data set on mouse leukemia L-1210 (8 mg/kg), the “Antitumor effect shown by T/C percentage” value was found to be 82%.

For the compound “cis-Oxalato-1-amino-1-aminomethylcyclohexane platinum [compound 13]”, the Solubility in water is greater than 2500 µg/mL. In data set [2], the IC50 was 0.021 µg/mL. The “Antitumor effect shown by T/C percentage” value in the data set on mouse leukemia L-1210 (0.5 mg/kg) is 146%. Also, the “Antitumor effect shown by T/C percentage” value in the data set with mouse leukemia L-1210 (1 mg/kg) is on record as 188%. In addition, the “Antitumor effect shown by T/C percentage” value in the data set with mouse leukemia L-1210 (2 mg/kg) is recorded as 296%. For the same compound, in the data set with mouse leukemia L-1210 (4 mg/kg), the “Antitumor effect shown by T/C percentage” value was 230%. In addition, the “Antitumor effect shown by T/C percentage” value in the data set on mouse leukemia L-1210 (8 mg/kg) is on record as 218%.

For “cis-bis(Pyruvato)-1-amino-1-aminomethylcyclohexane platinum [compound 16]”, the Solubility in water is greater than 2000 µg/mL.
